Results reported in patent US20260193619A1, “CULTURE MEDIUM COMPOSITION” (priority 2023, published 2026).

What was measured:
HEK293 = test: Effect of sodium dichloroacetate on proliferation of HEK293 in suspension culture (viable cell density); type: cell-based, human; settings: HEK293 (Viral Production Cells 2.0), Viral Production Medium + 5 mM sodium dichloroacetate vs medium without, 3 days, FIG. 1
Description: (§1) In the following Example 1, the ability of human embryonic kidney cell 293 (HEK293) to produce AAV was evaluated using sodium dichloroacetate. The reagents, cells, and medium used are as follows: • Sodium dichloroacetate: Sodium dichloroacetate (FUJIFILM Wako Pure Chemical Industries, Ltd., 326-87772) • HEK293: Viral Production Cells 2.0 (Thermo Fisher Scientific, A49784) • medium for HEK293: Viral Production Medium (Thermo Fisher Scientific: A4817901)
(§2) Viral Production Cells 2.0 were seeded in 30 mL of Viral Production Medium supplemented with GlutaMAXIM Supplement (Thermo Fisher Scientific: 35050061) to a final concentration of 4 mM in a 125 mL Erlenmeyer flask (VIOLAMO, SEF125V). The cells were then cultured in an incubator set at 37° C., 8% CO2 under stirring for two passages. […] On day 3, the number of viable cells was measured using a viable cell autoanalyzer Vi-CELL BLU (manufactured by Becman). […] 2 (Takara Bio: 6233), and the AAV8 genome titer was measured using 7500 Fast Real-Time PCR System (Thermo Fisher Scientific: 4357362). In addition, the number of viral particles was also measured using AAV-8 Titration ELISA Kit (PROGEN Biotechnik: PRAAV8). The full/empty capsid ratio (full capsid ratio) was calculated therefrom.

AAV8 = test: Production of AAV8 in HEK293 by adding sodium dichloroacetate (genome titer by real-time PCR, particles by ELISA, full capsid ratio); type: cell-based, human; settings: HEK293, 5 mM sodium dichloroacetate, 3 days after transfection, medium without DCA = 100%
Description: as §1, §2

Human adenovirus 32 = test: Production of adenovirus in HEK293 by adding sodium dichloroacetate in suspension culture system; type: cell-based; settings: HEK293 2.sus, CDM4HEK293 with or without sodium dichloroacetate, MOI 0.1
Description: In the following Example, the ability of human embryonic kidney cell 293 (HEK293) to produce adenovirus can be evaluated using sodium dichloroacetate. […] The cell number is measured using a hemocytometer and glutamine-containing 293 SFM II is added to 3×10^5 cells/mL. […] The cell number is measured using a hemocytometer and the culture solution is added to 3×10^5 cells/mL. 5 ML of the adjusted cell suspension is added to two Petri dishes and culturing with shaking (50 rpm) is performed in a CO2 incubator for 3-4 days. • (11) After culturing, steps (8) to (10) are repeated three times. • (12) After culturing for 3 days, the cell number is measured (FIG. 1) and adjusted to 1×10^5 cells/ml using CDM4HEK293 with or without addition of sodium dichloroacetate, and 5 mL thereof is added per Petri dish. […]

Which “cell proliferation (viable cell density before dilution on day 3 after seeding)” value (HEK293) does the source give for O=C([O-])C(Cl)Cl.[Na+] [sodium dichloroacetate, Sodium dichloroacetate] here?
Its value is “slightly inhibited cell proliferation”.

And the “AAV8 genome titer (relative)” value (AAV8; FIG. 2)?
The value was “improvements”.

And the “full capsid ratio (relative)” value (AAV8; FIG. 3)?
Its value is “improvements”.

And the adenovirus titer (Human adenovirus 32)?
Its adenovirus titer is “Improvement”.
